Test results as given in patent US20260055117A1, “SUBSTITUTED PYRIDONE GPR84 ANTAGONISTS AND USES THEREOF” (Liminal BioSciences Limited, priority 2022, published 2026).

Molecular target: T1, human GPR84 receptor (Homo sapiens, UniProt Q9NQS5)
T1 construct: host or cells: HEK293, transiently transfected
Assay: Gαi biosensor BRET assay (GPR84 antagonism vs agonist ZQ-16)
Assay type: cell-based
Details: HEK293 cells, 200 nmol/L agonist ZQ-16; for IC50: Gαi biosensor BRET assay; for inhibition at 2 µM: tested at 2 μM (concentration code A); for inhibition at 10 µM: tested at 10 μM (concentration code D)
Source text: Background—The following assays can be used for determination of GPR84 activation in living HEK293 cells. The Gai BRET biosensor (Gagnon et al., 2018; Gales et al., 2006. Nat Struct Mol Biol. 13, 778-86; Saulieres et al., 2012. Nat Chem Biol. 8, 622-30) allows to directly monitor GPR84-mediated activation of Gai. The Gai biosensor consists of a Rluc8-tagged Gai2 subunit, a GFP10-tagged Gy2 subunit, and an untagged GB1. Agonist stimulation and GPR84 activation triggers a physical separation between the RLuc8-Gai donor and the GFP10-Gy2 acceptor, resulting in a decrease in BRET signal whose amplitude is correlated to ligand efficacy (Gales et al., 2006). Moreover, signaling functions of GPCRs are tightly regulated by endocytosis, the targeting of receptors to endosomes and their sorting to lysosomes or recycling to the plasma membrane. The early endosomes (EEs) trafficking assay (Namkung et al., 2016. Nat Commun. 7, 12178) uses Rluc8-tagged GPR84 and Renilla GFP (rGFP) attached to the FYVE domain from human endofin/zinc finger FYVE domain-containing protein 16, which binds phosphatidylinositol 3-phosphate in EEs. Agonist stimulation of GPR84-Rluc8 leads to trafficking of the receptor to EEs, and ensuing increase of the donor concentration relative to the rGFP-FYVE acceptor anchored in the same cellular compartment, and thus results in an increase in BRET signal.
Plasmids—The cDNA clones for human GPR84 receptor, human Gai2, GB1, and Gy2 were obtained from the cDNA Resource Center (www.cdna.org). GFP10 (F64L, S147P, S202F and H231L variant of Aequorea victoria Green Fluorescent Protein) gBlocks gene fragments (Integrated DNA Technologies, IA) and linker were inserted in frame at the N-terminus of human Gy2. Rluc8 (A55T, C124A, S130A, K136R, A143M, M185V, M253L, and S287L variant of the Renilla reniformis luciferase) gBlocks gene fragment was inserted with linkers in frame in between residues 91 and 92 of Gai2 or at the C-terminus of GPR84. The FYVE domain from human endofin (residues Q739 to K806) attached in frame at the C terminus of a humanized Renilla GFP (rGFP), were synthesized as gBlocks gene fragments.
Bioluminescence Resonance Energy Transfer (BRET) Measurement-HEK293 cells were transfected with GPR84-Rluc8 and rGFP-FYVE for the EEs trafficking biosensor or with GPR84, Gai2-Rluc8, GFP10-Gy2, and GB1 for the Ga; biosensor. The following day, transiently transfected cells were seeded in 96-well white clear bottom microplates coated with poly-D-lysine and left in culture for 24 hours. Cells were washed once with Tyrode's buffer (140 mmol/L NaCl, 1 mmol/L CaCl2), 2.7 mmol/L KCl, 0.49 mmol/L MgCl2, 0.37 mmol/L NaH2PO4, 5.6 mmol/L glucose, 12 mmol/L NaHCO3, and 25 mmol/L HEPES, pH 7.5) before performing assays in Tyrode's buffer. Test compounds were incubated with cells for 5 (Gai) or 15 (EEs) minutes at 37° C. before addition of 200 nmol/L of the GPR84 agonist ZQ-16 (2-(Hexylthio)-6-hydroxy-4 (3H)-pyrimidinone) for 5 minutes at room temperature (Gai) or 30 minutes at 37° C. (EEs). The Rluc8 substrate coelenterazine 400A (Prolume, Lakeside, A Z) was added at a final concentration of 5 μmol/L and BRET readings were collected using an Infinite M1000 microplate reader (Tecan, Morrisville, N C). BRET2 readings between Rluc8 and GFP10 or rGFP were collected by sequential integration of the signals detected in the 370 to 450 nm (Rluc8) and 510 to 540 nm (GFP10, rGFP) windows. The BRET signal was calculated as the ratio of light emitted by acceptor (GFP10, rGFP) over the light emitted by donor (Rluc8). The values were corrected to net BRET by subtracting the background BRET signal obtained in cells transfected with Rluc8 constructs alone. Ligand-promoted net BRET values were calculated by subtracting vehicle-induced net BRET from ligand-induced net BRET.

T1 sequence (Q9NQS5 whole entry): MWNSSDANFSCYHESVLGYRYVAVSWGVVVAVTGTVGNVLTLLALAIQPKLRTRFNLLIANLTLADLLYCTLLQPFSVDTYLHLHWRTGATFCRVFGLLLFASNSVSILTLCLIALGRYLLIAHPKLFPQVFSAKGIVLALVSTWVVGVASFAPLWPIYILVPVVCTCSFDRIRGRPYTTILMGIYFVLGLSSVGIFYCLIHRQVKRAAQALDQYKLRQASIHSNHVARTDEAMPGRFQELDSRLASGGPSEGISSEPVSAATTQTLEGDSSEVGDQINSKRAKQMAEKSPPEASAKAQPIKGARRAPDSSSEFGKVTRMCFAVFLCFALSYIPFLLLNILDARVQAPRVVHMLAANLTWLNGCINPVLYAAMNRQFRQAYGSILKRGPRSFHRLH

Row | Compound | IC50 [µM] | inhibition at 2 µM [%] | inhibition at 10 µM [%] | inhibition at 5.4 µM (tested at 5.4 μM (concentration code C)) [%]
1 | Cc1cc(OCC(=O)N2C[C@@H](O)[C@@H](O)C2)cc(=O)n1[C@H](C)c1ccc(C#CC2CC2)cc1 [Compound I-316] | ≤ 0.3 | > 75 |  | 
2 | Cc1cc(OCC(=O)N2CCC[C@@H]2C2CC2)cc(=O)n1[C@H](C)c1ccc(C#CC2CC2)cc1 [Compound I-307] | ≤ 0.3 | > 75 |  | 
3 | Cc1cc(OCC2(N(C)C)COC2)cc(=O)n1[C@H](C)c1ccc(C#CC2CC2)c(F)c1 [Compound I-19] |  |  | 50 to 75 | 
4 | Cc1cc(OCC(=O)N2CC3(COC3)C2)cc(=O)n1[C@H](C)c1ccc(C#CC2CC2)cc1 [Compound I-283] | ≤ 0.3 |  | > 75 | 
5 | Cc1cc(OCc2ncccn2)cc(=O)n1[C@H](C)c1ccc(OC(C)C)cc1 [Compound I-129] |  |  | < 25 | 
6 | Cc1cc(OCC(=O)N2CC(C)OC(C)C2)cc(=O)n1[C@H](C)c1ccc(C#CC2CC2)cc1 (stereo partly drawn) [Compound I-348] |  |  | > 75 | 
7 | CNS(=O)(=O)C1CN(C(=O)COc2cc(C)n([C@H](C)c3ccc(C#CC4CC4)cc3)c(=O)c2)C1 [Compound I-323] | ≤ 0.3 | > 75 |  | 
8 | Cc1cc(OCC2COCCO2)cc(=O)n1[C@H](C)c1ccc(NC(=O)c2cnccn2)c(F)c1 (stereo partly drawn) [Compound I-9, N-(4-((1R)-1-(4-((1,4-dioxan-2-yl)methoxy)-6-methyl-2-oxopyridin-1 (2H)-yl)ethyl)-2-fluorophenyl) pyrazine-2-carboxamide] |  |  | < 25 | 
9 | Cc1cc(OCC(=O)N2CC[C@@H](C#N)C2)cc(=O)n1[C@H](C)c1ccc(C#CC2CC2)cc1 [Compound I-309] | ≤ 0.3 | > 75 |  | 
10 | Cc1cc(OCC(=O)N2CCC[C@@H]2C(N)=O)cc(=O)n1[C@H](C)c1ccc(C#CC2CC2)cc1 [Compound I-318] | 0.3 to 1 |  | > 75 | 
11 | Cc1cc(OCC(=O)N2CC[C@@H](F)C2)cc(=O)n1[C@H](C)c1ccc(C#CC2CC2)cc1 [Compound I-243] | ≤ 0.3 | > 75 |  | 
12 | Cc1cc(C#CC2CC2)cc(=O)n1[C@H](C)c1ccc(Br)cc1 [Compound I-240] |  |  | < 25 | 
13 | Cc1cc(OCC(=O)N2CC3CCC(C2)O3)cc(=O)n1[C@H](C)c1ccc(C#CC2CC2)cc1 [Compound I-325] | ≤ 0.3 | > 75 |  | 
14 | Cc1cc(OCC(=O)N2CC3CCC2CO3)cc(=O)n1[C@H](C)c1ccc(C#CC2CC2)cc1 (stereo partly drawn) [Compound I-326] | 1 to 3 |  | > 75 | 
15 | Cc1cc(OCC(=O)N2CC3CCC2CO3)cc(=O)n1[C@H](C)c1ccc(C#CC2CC2)cc1 (stereo partly drawn) [Compound I-327] | 1 to 3 | > 75 |  | 
16 | Cc1cc(OCC(=O)N2CC(O)C2)cc(=O)n1[C@H](C)c1ccc(C#CC2CC2)cc1 [Compound I-293] | ≤ 0.3 | > 75 |  | 
17 | Cc1cc(C#CC2CC2)cc(=O)n1[C@H](C)c1ccc(C#CC2CC2)cc1 [Compound I-90] |  |  | 50 to 75 | 
18 | Cc1cc(OCC(=O)N2CC3(CC3)C2)cc(=O)n1[C@H](C)c1ccc(C#CC2CC2)cc1 [Compound I-344] | ≤ 0.3 | > 75 |  | 
19 | CNS(=O)(=O)COc1cc(C)n([C@H](C)c2ccc(C#CC3CC3)c(F)c2)c(=O)c1 [Compound I-45] | 0.3 to 1 |  | 50 to 75 | 
20 | Cc1cc(OCC2(N(C)C)COC2)cc(=O)n1[C@H](C)c1ccc(C#CC2CC2)cc1 [Compound I-36] |  |  | > 75 | 
21 | Cc1cc(OCC(=O)N2CC[C@@H](N(C)S(C)(=O)=O)C2)cc(=O)n1[C@H](C)c1ccc(C#CC2CC2)cc1 [Compound I-338] |  |  | > 75 | 
22 | Cc1cc(OCC(=O)N(C)C)c(O)c(=O)n1[C@H](C)c1ccc(C#CC2CC2)cc1 [Compound I-286] |  |  | 50 to 75 | 
23 | Cc1cc(OCC(=O)N2C3CCC2COC3)cc(=O)n1[C@H](C)c1ccc(C#CC2CC2)cc1 [Compound I-324] | ≤ 0.3 | > 75 |  | 
24 | Cc1nc(OCC(=O)N2CCC[C@@H]2C(=O)O)cc(=O)n1[C@H](C)c1ccc(C#CC2CC2)cc1 [Compound I-296] |  |  | 50 to 75 | 
25 | Cc1cc(OCC(=O)NC(C)C)cc(=O)n1[C@H](C)c1ccc(C#CC2CC2)cc1 [Compound I-54] |  |  | > 75 | 
26 | Cc1cc(OCC(=O)N2CCC[C@@H]2C(F)(F)F)cc(=O)n1[C@H](C)c1ccc(C#CC2CC2)cc1 [Compound I-254] | ≤ 0.3 | > 75 |  | 
27 | Cc1cc(OCC(=O)N2CCC[C@H]2C#N)cc(=O)n1[C@H](C)c1ccc(C#CC2CC2)cc1 [Compound I-305] | ≤ 0.3 | > 75 |  | 
28 | Cc1cc(OCC(=O)N2CCC(F)(F)CC2)cc(=O)n1[C@H](C)c1ccc(C#CC2CC2)cc1 [Compound I-8] |  |  | > 75 | 
29 | Cc1cc(OCC(=O)N2CCC[C@H]2CO)cc(=O)n1[C@H](C)c1ccc(C#CC2CC2)cc1 [Compound I-248] | ≤ 0.3 | > 75 |  | 

Second part, the molecule after the results:

Row | IC50 [µM] | inhibition at 2 µM [%] | inhibition at 10 µM [%] | inhibition at 5.4 µM (tested at 5.4 μM (concentration code C)) [%] | Compound
30 |  |  |  | > 75 | C#Cc1ccc([C@@H](C)n2c(C)cc(OCC(=O)N(C)C)cc2=O)cc1 [Compound I-295]
31 |  |  | > 75 |  | Cc1cc(OCC(=O)N(C)C)cc(=O)n1[C@H](C)c1ccc(C#CC2CC2)c(C2CC2)c1 [Compound I-33]
32 | ≤ 0.3 |  | > 75 |  | Cc1cc(OCC(=O)N(C)C)cc(=O)n1[C@H](C)c1ccc(C#CC2(C(F)(F)F)CC2)cc1 [Compound I-56]
33 | 0.3 to 1 |  | > 75 |  | Cc1cc(OCC(=O)N(C(C)C)C(C)C)cc(=O)n1[C@H](C)c1ccc(C#CC2CC2)cc1 [Compound I-347]
34 | ≤ 0.3 |  | > 75 |  | Cc1cc(OCC(=O)N(C)C)cc(=O)n1[C@H](C)c1ccc(C#CC2(C)CC2)cc1 [Compound I-80]
35 | ≤ 0.3 | > 75 |  |  | [2H]C1(C#Cc2ccc([C@@H](C)n3c(C)cc(OCC(=O)N(C)C)cc3=O)cc2)CC1 [Compound I-73]
36 | ≤ 0.3 | > 75 |  |  | Cc1cc(OCC(=O)N(C)C)cc(=O)n1[C@H](C)c1ccc(C#CCC2CC2)cc1 [Compound I-32]
37 |  |  | < 25 |  | Cc1cc(OCC(=O)N(C)C)cc(=O)n1[C@H](C)c1ccc(C(=O)O)cc1 [Compound I-265]
38 |  | > 75 |  |  | Cc1cc(OCC(=O)N(C)CC(=O)O)cc(=O)n1[C@H](C)c1ccc(C#CC2CC2)cc1 [Compound I-350]
39 | ≤ 0.3 | > 75 |  |  | Cc1cc(OCC(=O)N(C)C)cc(=O)n1[C@H](C)c1ccc(C#CC2CC2)c(F)c1 [Compound I-14]
40 | ≤ 0.3 |  | > 75 |  | Cc1cc(OCC(=O)N(C)CC(C)C)cc(=O)n1[C@H](C)c1ccc(C#CC2CC2)cc1 [Compound I-65]
41 | 1 to 3 |  | > 75 |  | Cc1cc(OCC(=O)N2CC[C@H]2C(=O)O)cc(=O)n1[C@H](C)c1ccc(C#CC2CC2)cc1 [Compound I-301]
42 |  |  | > 75 |  | Cc1cc(OCC(=O)N(C)C)cc(=O)n1[C@H](C)c1ccc(C#CC2(O)CC2)cc1 [Compound I-210]
43 | ≤ 0.3 | > 75 |  |  | CCN(C)C(=O)COc1cc(C)n([C@H](C)c2ccc(C#CC3CC3)cc2)c(=O)c1 [Compound I-267]
